Assay results published in patent US10010547B2 (CASCADIAN THERAPEUTICS, INC., priority 2014, dated 2018).
Structures can show the parent of a compound that is named as a salt. Where two headings read alike, the source gives them in different places.

Assays:
Chk-1 kinase = Chk-1 kinase (Homo sapiens (Human), UniProt O14757); assay: Chk-1 Kinase Inhibiting Activity (33P-ATP filter assay, CHKtide substrate); assay type: biochemical
Method in brief: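 Full-length N-terminal GST-tagged human Chk-1 from insect cells, 0.5 nM final, with 20 μM peptide substrate and 33P-ATP in HEPES pH 7.5 buffer with 1% DMSO. Reaction ran 120 minutes at room temperature; incorporated radioactivity captured on P81 filters and counted for IC50.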

MIA PaCa-2 cells = assay: Gemcitabine Combination Cell Assay (Cell Titer Glo); assay type: cell-based; conditions: for IC50: Homo sapiens; for 10xLS: approximate concentration of Chk1 inhibitor that results in a 10-fold reduction in the IC50 of gemcitabine alone; for 2xLS: approximate concentration of Chk1 inhibitor that results in a two-fold reduction in the IC50 of gemcitabine alone
Method in brief: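 MIA PaCa-2 cells were treated 72 h with half-log dilutions of Chk1 inhibitor (top 3000 nM) and gemcitabine (top 100 nM), alone and in full matrix; viability by CellTiter-Glo luminescence. IC50s from four-parameter fit; Chk1 inhibitor concentrations giving two- and ten-fold lowering of gemcitabine IC50 were estimated.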

[1] = against Chk-1 kinase, read-out: IC50
[2] = Chk1 inhibitor alone, MIA PaCa-2 cells, 72 h, read-out: Chk1 IC50
[3] = MIA PaCa-2, 72 h, read-out: Chk1 IC50 (nM)

Sequence of Chk-1 kinase (O14757 whole entry): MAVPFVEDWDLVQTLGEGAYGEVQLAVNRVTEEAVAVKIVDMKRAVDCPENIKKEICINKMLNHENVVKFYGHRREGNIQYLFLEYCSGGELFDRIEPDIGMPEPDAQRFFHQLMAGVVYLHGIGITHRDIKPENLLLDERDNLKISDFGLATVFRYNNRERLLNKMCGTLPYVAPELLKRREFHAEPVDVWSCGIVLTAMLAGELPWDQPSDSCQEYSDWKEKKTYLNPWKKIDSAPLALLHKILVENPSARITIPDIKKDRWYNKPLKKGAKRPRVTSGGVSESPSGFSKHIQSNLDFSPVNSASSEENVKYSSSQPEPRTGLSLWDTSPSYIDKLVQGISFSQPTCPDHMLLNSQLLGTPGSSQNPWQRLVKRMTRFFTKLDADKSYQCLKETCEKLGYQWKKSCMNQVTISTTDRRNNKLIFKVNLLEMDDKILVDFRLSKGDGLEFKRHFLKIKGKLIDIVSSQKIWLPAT

Row | SMILES | IC50 (Chk-1 kinase; [1]) | IC50 (MIA PaCa-2 cells; [2]) | 10xLS (MIA PaCa-2 cells; MIA PaCa-2 cells, 72 h) | 2xLS (MIA PaCa-2 cells; MIA PaCa-2 cells, 72 h) | IC50 (Chk-1 kinase) | IC50 (MIA PaCa-2 cells; [3])
1 | COc1cc(C2CCN(C)CC2)ccc1-c1cc(Nc2cnc(C)cn2)n[nH]1 [Example 26, N-[5-[2-methoxy-4-(1-methyl-4-piperidyl)phenyl]-1H-pyrazol-3-yl]-5-methyl-pyrazin-2-amine] | 10 nM | 5580 nM | >3000 nM | 1000 nM | – | –
2 | COc1cc([C@H]2CCN(C)C[C@@H]2F)ccc1-c1cc(Nc2cnc(C#N)cn2)n[nH]1 [Example 96, 5-[[5-[4-[(3(R,S),4(R,S))-3-fluoro-1-methyl-4-piperidyl]-2-methoxy-phenyl]-1H-pyrazol-3-yl]amino]pyrazine-2-carbonitrile] | – | 730 nM | <300 nM | 10 nM | 0.4 nM | –
3 | COC(=O)c1cnc(Nc2cc(-c3ccc(C4CCNCC4)cc3OC)[nH]n2)cn1 [Example 71, methyl 5-[[5-[2-methoxy-4-(4-piperidyl)phenyl]-1H-pyrazol-3-yl]amino]pyrazine-2-carboxylate] | > 100 nM | > 3000 nM | >3000 nM | >3000 nM | – | –
4 | COc1cc(N2CCCN(C(C)C)CC2)ccc1-c1cc(Nc2cnc(C#N)cn2)n[nH]1 [Example 84, 5-[[5-[4-(4-isopropyl-1,4-diazepan-1-yl)-2-methoxy-phenyl]-1H-pyrazol-3-yl]amino]pyrazine-2-carbonitrile] | 0.14 nM | 62 nM | <100 nM | <3 nM | – | –
5 | COc1cc(NC2CCN(C(C)C)CC2)ccc1-c1cc(Nc2cnc(C#N)cn2)n[nH]1 [Example 112, 5-[[5-[4-[(1-isopropyl-4-piperidyl)amino]-2-methoxy-phenyl]-1H-pyrazol-3-yl]amino]pyrazine-2-carbonitrile] | 0.0042 nM | 253 nM | 100 nM | <3 nM | – | –
6 | COc1cc(CNC2CCOCC2)ccc1-c1cc(Nc2cnc(C#N)cn2)n[nH]1 [Example 14, 5-[[5-[2-Methoxy-4-[(tetrahydropyran-4-ylamino)methyl]phenyl]-1H-pyrazol-3-yl]amino]pyrazine-2-carbonitrile hydrochloride] | 0.026 nM | – | ~50 nM | <3 nM | – | 894 nM
7 | CN1CCC(c2ccc(-c3cc(Nc4cnc(C#N)cn4)n[nH]3)cc2)CC1 [Example 27, 5-[[5-[4-(1-methyl-4-piperidyl)phenyl]-1H-pyrazol-3-yl]amino]pyrazine-2-carbonitrile] | 3.6 nM | 5750 nM | 3000 nM | 300 nM | – | –
8 | N#Cc1cnc(Nc2cc(-c3ccc(N4CCNCC4)cc3OC(F)(F)F)[nH]n2)cn1 [Example 153] | – | 1200 nM | 1000 nM | 100 nM | 3.8 nM | –
9 | COc1cc(O[C@H]2CCNC2)ccc1-c1cc(Nc2cnc(C#N)cn2)n[nH]1 [Example 33, 5-[[5-[2-methoxy-4-[(3S)-pyrrolidin-3-yl]oxy-phenyl]-1H-pyrazol-3-yl]amino]pyrazine-2-carbonitrile] | 0.074 nM | 62 nM | <30 nM | <3 nM | – | –
10 | CCN1CC[C@@H](OCc2ccc(-c3cc(Nc4cnc(C#N)cn4)n[nH]3)c(OC)c2)C1 [Example 140, 5-[[5-[4-[[(3R)-1-ethylpyrrolidin-3-yl]oxymethyl]-2-methoxy-phenyl]-1H-pyrazol-3-yl]amino]pyrazine-2-carbonitrile hydrochloride] | 0.021 nM | – | <300 nM | <10 nM | – | 618 nM
11 | COc1cc(C2CCNCC2)ccc1-c1cc(Nc2cnc(Cl)cn2)n[nH]1 [Example 43, 5-chloro-N-[5-[2-methoxy-4-(4-piperidyl)phenyl]-1H-pyrazol-3-yl]pyrazin-2-amine] | 0.73 nM | 1330 nM | 1000 nM | 100 nM | – | –
12 | CCN1CCC(c2ccc(-c3cc(Nc4cnc(C#N)cn4)n[nH]3)c(OC)c2)C(F)C1 (centres unmarked) [Example 87, 5-[[5-[4-(1-ethyl-3-fluoro-4-piperidyl)-2-methoxy-phenyl]-1H-pyrazol-3-yl]amino]pyrazine-2-carbonitrile hydrochloride] | 0.059 nM | – | 300 nM | 10 nM | – | 540 nM
13 | COc1cc(C2C[C@H](C)N[C@@H](C)C2)ccc1-c1cc(Nc2cnc(C#N)cn2)n[nH]1 (stereo partly drawn) [Example 47, 5-[[5-[4-[(2S,6S)-2,6-dimethyl-4-piperidyl]-2-methoxy-phenyl]-1H-pyrazol-3-yl]amino]pyrazine-2-carbonitrile] | 0.23 nM | 235 nM | 100 nM | 3 nM | – | –
14 | CCN1CCC(Cc2ccc(-c3cc(Nc4cnc(C#N)cn4)n[nH]3)c(OC)c2)CC1 [Example 143, 5-[[5-[4-[(1-Ethyl-4-piperidyl)methyl]-2-methoxy-phenyl]-1H-pyrazol-3-yl]amino]pyrazine-2-carbonitrile hydrochloride] | 0.021 nM | – | <300 nM | <10 nM | – | 820 nM
15 | COc1cc(CN2CC[C@@H](F)C2)ccc1-c1cc(Nc2cnc(C#N)cn2)n[nH]1 [Example 123, 5-[[5-[4-[[(3R)-3-fluoropyrrolidin-1-yl]methyl]-2-methoxy-phenyl]-1H-pyrazol-3-yl]amino]pyrazine-2-carbonitrile hydrochloride] | 0.16 nM | – | <300 nM | 3 nM | – | 440 nM
16 | COc1cc(C2CCNCC2)ccc1-c1cc(Nc2ccc(C#N)cn2)n[nH]1 [Example 50, 6-[[5-[2-methoxy-4-(4-piperidyl)phenyl]-1H-pyrazol-3-yl]amino]pyridine-3-carbonitrile] | 20 nM | > 3000 nM | 3000 nM | 300 nM | – | –

More lines, main results first:

Row | IC50 (Chk-1 kinase; [1]) | IC50 (MIA PaCa-2 cells; [2]) | SMILES | 10xLS (MIA PaCa-2 cells; MIA PaCa-2 cells, 72 h) | 2xLS (MIA PaCa-2 cells; MIA PaCa-2 cells, 72 h) | IC50 (Chk-1 kinase) | IC50 (MIA PaCa-2 cells; [3])
17 | 0.15 nM | 177 nM | COc1cc(N2CCNCC2)cc(OC)c1-c1cc(Nc2cnc(C#N)cn2)n[nH]1 [Example 121, 5-[[5-(2,6-dimethoxy-4-piperazin-1-yl-phenyl)-1H-pyrazol-3-yl]amino]pyrazine-2-carbonitrile] | <100 nM | 3 nM | – | –
18 | 0.058 nM | 390 nM | CCNCc1ccc(-c2cc(Nc3cnc(C#N)cn3)n[nH]2)c(OC)c1 [Example 90, 5-[[5-[4-(ethylaminomethyl)-2-methoxy-phenyl]-1H-pyrazol-3-yl]amino]pyrazine-2-carbonitrile] | <300 nM | 10 nM | – | –
19 | 0.14 nM | 164 nM | COc1cc(C2(F)CNC2)ccc1-c1cc(Nc2cnc(C#N)cn2)n[nH]1 [Example 77, 5-[[5-[4-(3-fluoroazetidin-3-yl)-2-methoxy-phenyl]-1H-pyrazol-3-yl]amino]pyrazine-2-carbonitrile] | <100 nM | <3 nM | – | –
20 | 36 nM | 3570 nM | COc1cc(C2CCNCC2)ccc1-c1cc(Nc2ccc(C#N)c(F)c2)n[nH]1 [Example 49, 2-fluoro-4-[[5-[2-methoxy-4-(4-piperidyl)phenyl]-1H-pyrazol-3-yl]amino]benzonitrile] | <3000 nM | 1000 nM | – | –
21 | 2.4 nM | 3180 nM | CN1CCC(c2ccc(-c3cc(Nc4cnc(C#N)cn4)n[nH]3)c(F)c2)CC1 [Example 21, 5-[[5-[2-fluoro-4-(1-methyl-4-piperidyl)phenyl]-1H-pyrazol-3-yl]amino]pyrazine-2-carbonitrile] | 1000 nM | 100 nM | – | –
22 | 0.022 nM | 144 nM | COc1cc(C2CN(C)C2)ccc1-c1cc(Nc2cnc(C#N)cn2)n[nH]1 [Example 65, 5-[[5-[2-methoxy-4-(1-methylazetidin-3-yl)phenyl]-1H-pyrazol-3-yl]amino]pyrazine-2-carbonitrile] | <100 nM | 3 nM | – | –
23 | 0.023 nM | 158 nM | CCN1CCC[C@H]1COc1ccc(-c2cc(Nc3cnc(C#N)cn3)n[nH]2)c(OC)c1 [Example 128, 5-[[5-[4-[[(2S)-1-ethylpyrrolidin-2-yl]methoxy]-2-methoxy-phenyl]-1H-pyrazol-3-yl]amino]pyrazine-2-carbonitrile] | <100 nM | <3 nM | – | –
